Tests used:
Assay in all cases: relative viability (nuclei count vs DMSO), 5 days (fraction); higher = more cells survive
Staurosporine + Olaparib = compound: CN[C@@H]1C[C@H]2O[C@@](C)([C@@H]1OC)n1c3ccccc3c3c4c(c5c6ccccc6n2c5c31)C(=O)NC4 [Staurosporine] + O=C(c1cc(Cc2n[nH]c(=O)c3ccccc23)ccc1F)N1CCN(C(=O)C2CC2)CC1 [Olaparib] (partner 8 µM)
How it was run: (§1)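 Lung cancer cell lines, seeded in 1536-well plates, were treated the following day by pin tool with a single drug or with five library-drug doses (not always all listed) in √10 steps on top of a fixed anchor-drug dose. Cells were fixed and nuclei stained in one step after 5 days, and nuclei were counted. Relative viability is the nuclei count for treated wells divided by that for vehicle wells, reported as medians of duplicate plates.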

[1] = compound: O=c1[nH]cc(F)c(=O)[nH]1 [5-Fluorouracil] + C[C@]1(O)C[C@@H](c2nc(-c3ccc4ccc(-c5ccccc5)nc4c3)c3c(N)nccn32)C1 [Linsitinib] (partner 1 µM)
How it was run: as §1

[2] = compound: O=c1[nH]cc(F)c(=O)[nH]1 [5-Fluorouracil] + CC1(C)CCC(c2ccc(Cl)cc2)=C(CN2CCN(c3ccc(C(=O)NS(=O)(=O)c4ccc(N[C@H](CCN5CCOCC5)CSc5ccccc5)c(S(=O)(=O)C(F)(F)F)c4)cc3)CC2)C1 [Navitoclax] (partner 0.5 µM)
How it was run: as §1

Sulindac + Linsitinib = compound: CC1=C(CC(=O)O)c2cc(F)ccc2/C1=C\c1ccc([S+](C)[O-])cc1 [Sulindac] + C[C@]1(O)C[C@@H](c2nc(-c3ccc4ccc(-c5ccccc5)nc4c3)c3c(N)nccn32)C1 [Linsitinib] (partner 1 µM)
How it was run: as §1

UMC-11
relative viability (Staurosporine + Olaparib; first compound 0.005 µM): 0.375
relative viability (Staurosporine + Olaparib; first compound 0.01581 µM): 0.212
relative viability (Staurosporine + Olaparib; first compound 0.05 µM): 0.154
relative viability (Staurosporine + Olaparib; first compound 0.1581 µM): 0.0879
relative viability (Staurosporine + Olaparib; first compound 0.5 µM): 0.0921
relative viability ([1]; first compound 0.02 µM): 0.969
relative viability ([1]; first compound 0.2 µM): 0.674
relative viability ([1]; first compound 0.6325 µM): 0.512
relative viability ([1]; first compound 2 µM): 0.363
relative viability ([2]; first compound 0.02 µM): 0.386
relative viability ([2]; first compound 0.2 µM): 0.322
relative viability ([2]; first compound 0.6325 µM): 0.286
relative viability ([2]; first compound 2 µM): 0.241
relative viability (Sulindac + Linsitinib; first compound 0.08 µM): 1.27
relative viability (Sulindac + Linsitinib; first compound 0.253 µM): 1.02
relative viability (Sulindac + Linsitinib; first compound 0.8 µM): 0.815
relative viability (Sulindac + Linsitinib; first compound 2.53 µM): 1.06
relative viability (Sulindac + Linsitinib; first compound 8 µM): 1.07
